Among the test systems are TK-10; CAKI-1; NCI-H522; KM12; ACHN; SF-539; SNB-19; HL-60; MDA-MB-435; UO-31; SK-MEL-28; NCI/ADR-RES; MDA-MB-231; U-251; MDA-N; NCI-H226; NCI-H23; SK-OV-3; SK-MEL-2; Malme-3M.
Holding throughout (experiment): NCI anticancer screen, dose series, 48 h

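The compound was tested at five concentrations on cells cultured in 96-well plates, with a 48-hour exposure period. The concentration for 50% growth inhibition is given as GI50.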 Activity calls are given as the source filed them. No stated cut-off is given here; in the data, active = GI50 up to about 1.1 µM and inactive = higher.

Regarding `C=CCN1C(=O)/C(=C/c2ccc(C)cc2)NC1=S`, the GI50 is > 100 µM (inactive) in the experiment with TK-10; > 100 µM (inactive) with CAKI-1; 43 µM (inactive) in the experiment on NCI-H522; 97.7 µM (inactive) in the experiment with KM12; > 100 µM (inactive) in the experiment with ACHN; > 100 µM (inactive) with SF-539. The GI50 in the experiment with SNB-19 was > 100 µM (inactive); in the experiment on HL-60, 20 µM (inactive); in the experiment with MDA-MB-435 it was 76.6 µM (inactive); with UO-31, > 100 µM (inactive); in the experiment on SK-MEL-28, > 100 µM (inactive); with NCI/ADR-RES, 81.7 µM (inactive). Besides, the GI50 is 60.1 µM (inactive) with MDA-MB-231; > 100 µM (inactive) in the experiment with U-251; 94.8 µM (inactive) with MDA-N; 88.3 µM (inactive) with NCI-H226; 57.5 µM (inactive) in the experiment with NCI-H23; > 100 µM (inactive) with SK-OV-3. In addition, the GI50 in the experiment on SK-MEL-2 was > 100 µM (inactive).

For `CC(C)=CCOC(=O)C(C)=[N+]=[N-]`, the GI50 in the experiment on TK-10, with CAKI-1, with NCI-H522, in the experiment on KM12, in the experiment on ACHN and in the experiment on SNB-19 was > 100 µM (inactive) each time. Moreover, the GI50 was 42.6 µM (inactive) with HL-60; > 100 µM (inactive) with MDA-MB-435; > 100 µM (inactive) with UO-31; > 100 µM (inactive) with Malme-3M; > 100 µM (inactive) in the experiment on SK-MEL-28; > 100 µM (inactive) in the experiment on NCI/ADR-RES. Also, the GI50 with MDA-MB-231, with U-251, in the experiment with MDA-N, in the experiment with NCI-H226 and in the experiment on NCI-H23 was > 100 µM (inactive) in each case.

For `OCC1NC(COC2OC(CO)C(O)C(O)C2O)C(O)C(O)C1O` (stereo not drawn), the GI50 with TK-10, in the experiment on CAKI-1, in the experiment on NCI-H522, with KM12, in the experiment with ACHN and in the experiment with SF-539 was > 100 µM (inactive) in each case. Also, the GI50 in the experiment on SNB-19, with HL-60, in the experiment with MDA-MB-435, with UO-31, with Malme-3M and in the experiment on SK-MEL-28 was > 100 µM (inactive) in each case. The GI50 in the experiment on NCI/ADR-RES, in the experiment with MDA-MB-231, in the experiment on U-251, with MDA-N, in the experiment with NCI-H226 and in the experiment on NCI-H23 was > 100 µM (inactive) throughout. Besides, the GI50 in the experiment with SK-MEL-2 is > 100 µM (inactive).

For the molecule `O=C1C(Br)=C(Br)C(=O)c2c(O)ccc(O)c21`, the GI50 was 2.27 µM (inactive) in the experiment with TK-10; 0.287 µM (active) with NCI-H522; 11.4 µM (inactive) with KM12; 2.48 µM (inactive) in the experiment on ACHN; 15.9 µM (inactive) with SF-539; 18.3 µM (inactive) in the experiment with SNB-19. Moreover, the GI50 was 0.168 µM (active) in the experiment on HL-60; 3.07 µM (inactive) in the experiment on MDA-MB-435; 2.79 µM (inactive) with UO-31; 1.45 µM (inactive) with Malme-3M; 2.06 µM (inactive) in the experiment with SK-MEL-28; 12.2 µM (inactive) in the experiment on NCI/ADR-RES. Besides, the GI50 with MDA-MB-231 is 2.64 µM (inactive); in the experiment with U-251, 16.4 µM (inactive); in the experiment with MDA-N, 2.49 µM (inactive); in the experiment with NCI-H226 it was 28.4 µM (inactive); with NCI-H23 it was 4.67 µM (inactive); in the experiment on SK-OV-3, 20 µM (inactive). Besides, the GI50 with SK-MEL-2 is 26.2 µM (inactive).

For `COC(=O)C(NC(=O)CNC(=O)CSc1nnc(COc2ccc(Cl)cc2)n1-c1ccccc1)C(C)C` (stereo not drawn), the GI50 in the experiment with TK-10 was 16.9 µM (inactive); in the experiment with CAKI-1, 14.7 µM (inactive); with NCI-H522 it was 3.75 µM (inactive); in the experiment with KM12 it was 18.5 µM (inactive); with ACHN it was 18 µM (inactive); in the experiment on SF-539, 17.1 µM (inactive). Also, the GI50 with SNB-19 was 20.3 µM (inactive); in the experiment with MDA-MB-435, 21.2 µM (inactive); in the experiment with UO-31, 17.8 µM (inactive); in the experiment on Malme-3M, 18.4 µM (inactive); with SK-MEL-28 it was 16.7 µM (inactive); in the experiment on NCI/ADR-RES, > 100 µM (inactive). The GI50 in the experiment with MDA-MB-231 was 18.5 µM (inactive); in the experiment on U-251 it was 18.3 µM (inactive); with MDA-N, 21.6 µM (inactive); in the experiment on NCI-H226, 19.1 µM (inactive); with NCI-H23, 20 µM (inactive); in the experiment on SK-MEL-2, 20.8 µM (inactive).

With `O=C(c1ccco1)N(C(=S)OCCOc1ccccc1)c1ccccc1`, the GI50 was 20.9 µM (inactive) with TK-10; 18.7 µM (inactive) with CAKI-1; 17.1 µM (inactive) in the experiment on NCI-H522; 19.5 µM (inactive) with KM12; 23 µM (inactive) with ACHN; 22.9 µM (inactive) in the experiment with SF-539. The GI50 in the experiment with SNB-19 was 26.7 µM (inactive); in the experiment with HL-60 it was 24.3 µM (inactive); with MDA-MB-435, 16.2 µM (inactive); in the experiment on UO-31, 15.7 µM (inactive); with Malme-3M, 19.9 µM (inactive); with SK-MEL-28, 18.2 µM (inactive). Besides, the GI50 in the experiment on NCI/ADR-RES is 25.7 µM (inactive); in the experiment with MDA-MB-231, 16.4 µM (inactive); with U-251, 16.5 µM (inactive); in the experiment on MDA-N, 18.9 µM (inactive); with NCI-H23 it was 21.3 µM (inactive); in the experiment on SK-OV-3, 21.8 µM (inactive). Moreover, the GI50 in the experiment with SK-MEL-2 was 19.6 µM (inactive).

Take `Oc1c(CN2CCOCC2)ccc2cccnc12`: the GI50 in the experiment with TK-10 was > 10 µM (inactive); with CAKI-1 it was 5.16 µM (inactive); in the experiment on NCI-H522, 2.62 µM (inactive); with KM12, > 10 µM (inactive); in the experiment on ACHN it was > 10 µM (inactive); with SF-539 it was > 10 µM (inactive). In addition, the GI50 in the experiment with SNB-19 is > 10 µM (inactive); in the experiment with MDA-MB-435, > 10 µM (inactive); with UO-31, 8.38 µM (inactive); in the experiment on Malme-3M it was > 10 µM (inactive); in the experiment with SK-MEL-28, > 10 µM (inactive); in the experiment on NCI/ADR-RES it was 2.34 µM (inactive). For the same molecule, the GI50 with MDA-MB-231, in the experiment with U-251, in the experiment with MDA-N, in the experiment with NCI-H226, in the experiment on NCI-H23 and in the experiment on SK-OV-3 was > 10 µM (inactive) in each case. Also, in the experiment on SK-MEL-2, the GI50 was > 10 µM (inactive).

As to `CCN1C(c2ccccc2)=CC(c2ccccc2)(C(Cl)(Cl)Cl)C=C1c1ccccc1`, the GI50 in the experiment with TK-10 is 17.7 µM (inactive); in the experiment with CAKI-1 it was 30.8 µM (inactive); with NCI-H522 it was 5.69 µM (inactive); with KM12, 3.31 µM (inactive); in the experiment on ACHN it was 24.9 µM (inactive); with SF-539, 15.6 µM (inactive). Further, the GI50 was 4.46 µM (inactive) in the experiment on SNB-19; 1.1 µM (active) in the experiment with HL-60; 2.74 µM (inactive) with MDA-MB-435; 34.6 µM (inactive) with UO-31; 4.5 µM (inactive) in the experiment on Malme-3M; 3.92 µM (inactive) with SK-MEL-28. Also, the GI50 with NCI/ADR-RES is 40.1 µM (inactive); in the experiment on MDA-MB-231, 3.4 µM (inactive); with U-251, 6.01 µM (inactive); in the experiment on MDA-N, 4.94 µM (inactive); with NCI-H226 it was 19.2 µM (inactive); in the experiment with NCI-H23, 8.81 µM (inactive).

Regarding `Cc1cc2c(Br)cc(Br)c(O)c2nc1C(=O)c1ccccc1`, the GI50 with TK-10 was 28.4 µM (inactive); in the experiment with CAKI-1 it was 55.8 µM (inactive); with NCI-H522, 13.5 µM (inactive); with KM12, 22.3 µM (inactive); with ACHN, 20.8 µM (inactive); in the experiment with SF-539, 19.1 µM (inactive). Also, the GI50 in the experiment on SNB-19 is 24.9 µM (inactive); in the experiment with HL-60 it was 4.4 µM (inactive); in the experiment on MDA-MB-435, 43.1 µM (inactive); with UO-31, 12.2 µM (inactive); in the experiment with Malme-3M it was 33.2 µM (inactive); in the experiment with SK-MEL-28 it was > 62.7 µM (inactive). Moreover, the GI50 in the experiment on NCI/ADR-RES was 4.01 µM (inactive); in the experiment on MDA-MB-231 it was 20 µM (inactive); with U-251, 14.4 µM (inactive); in the experiment with MDA-N, 16.2 µM (inactive); with NCI-H226, > 51.1 µM (inactive); in the experiment with NCI-H23, 13.1 µM (inactive). The GI50 in the experiment on SK-MEL-2 is > 61.1 µM (inactive).

As to `CC(=O)/N=C1\NC(=O)/C(=C/c2ccc(Cl)cc2Cl)N1C`, the GI50 in the experiment with TK-10 was > 100 µM (inactive); in the experiment with CAKI-1, > 100 µM (inactive); with NCI-H522 it was > 100 µM (inactive); in the experiment on KM12, > 100 µM (inactive); with ACHN it was > 100 µM (inactive); in the experiment with SF-539, 77.4 µM (inactive). The GI50 with SNB-19 was 47.6 µM (inactive); in the experiment with HL-60 it was 0.277 µM (active); in the experiment with MDA-MB-435, 97.5 µM (inactive); in the experiment with UO-31, > 100 µM (inactive); in the experiment on NCI/ADR-RES it was 21.7 µM (inactive); in the experiment with MDA-MB-231, 74.6 µM (inactive). The GI50 with U-251 was 19.5 µM (inactive); in the experiment on MDA-N, > 100 µM (inactive); in the experiment with NCI-H226, 6.81 µM (inactive); in the experiment with NCI-H23, > 100 µM (inactive); in the experiment on SK-OV-3 it was > 100 µM (inactive); in the experiment on SK-MEL-2, > 100 µM (inactive).

For the molecule `Cc1n[nH]c(=O)n1/N=C\c1ccccc1`, the GI50 with TK-10, with CAKI-1, with NCI-H522, in the experiment with KM12, in the experiment with ACHN and in the experiment with SF-539 was > 100 µM (inactive) each time. For the same molecule, the GI50 with HL-60, with MDA-MB-435, in the experiment with UO-31, with Malme-3M, in the experiment on SK-MEL-28 and with NCI/ADR-RES was > 100 µM (inactive) each time. Further, the GI50 was > 100 µM (inactive) with MDA-MB-231; > 100 µM (inactive) in the experiment with U-251; > 100 µM (inactive) in the experiment with MDA-N; > 100 µM (inactive) in the experiment on NCI-H226; > 100 µM (inactive) in the experiment with NCI-H23; 83.9 µM (inactive) in the experiment with SK-MEL-2.

These data come from ChEMBL document CHEMBL1201862, “PubChem BioAssay data set” (2004).
